Source: PubChem BioAssay AID1918942 (Molecular Pharmacology Branch, DTP, NCI, 2023)

Test system: 743489-274-T-PDC complex spheroid viability
Assay: Anticancer human tumor 743489-274-T-PDC patient-derived renal cell carcinoma cell line growth inhibition
Details: for IC50: curve of first compound; for viability, T/C: stronger effect = lower value
Outline: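 Complex spheroids of tumor cells with HUVEC and human MSCs, exposed to iadademstat combined with other agents. Each agent tested in half-log steps from near clinical Cmax (else 10 microM top), DMSO ≤0.25%.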

[1] = second compound 0.1 µM, first compound 0.00949 µM
[2] = second compound 0.1 µM, first compound 0.03 µM
[3] = second compound 0.1 µM, first compound 0.0949 µM
[4] = second compound 0.1 µM, first compound 0.3 µM
[5] = second compound 0.316 µM, first compound 0.00949 µM
[6] = second compound 0.316 µM, first compound 0.03 µM
[7] = second compound 0.316 µM, first compound 0.0949 µM
[8] = second compound 0.316 µM, first compound 0.3 µM
[9] = second compound 1 µM, first compound 0.00949 µM
[10] = second compound 1 µM, first compound 0.03 µM
[11] = second compound 1 µM, first compound 0.0949 µM
[12] = second compound 1 µM, first compound 0.3 µM
[13] = second compound 3.16 µM, first compound 0.00949 µM
[14] = second compound 3.16 µM, first compound 0.03 µM
[15] = second compound 3.16 µM, first compound 0.0949 µM
[16] = second compound 3.16 µM, first compound 0.3 µM
[17] = second compound 10 µM, first compound 0.00949 µM
[18] = second compound 10 µM, first compound 0.03 µM
[19] = second compound 10 µM, first compound 0.0949 µM
[20] = second compound 10 µM, first compound 0.3 µM
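Note: spheroids exposed to compounds for 7 days before readout.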
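Throughout, for viability, T/C: 100% = DMSO vehicle control wells.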

For `CCN(c1cc(-c2ccc(CN3CCOCC3)cc2)cc(C(=O)NCc2c(C)cc(C)[nH]c2=O)c1C)C1CCOCC1` + NC1CC1c1ccc(-c2cccc(O)c2)cc1, the IC50 (second compound 0.1 µM) was over 3000 nM, the IC50 (second compound 0.316 µM) was over 3000 nM and the IC50 (second compound 1 µM) was over 3000 nM. The IC50 (second compound 3.16 µM) was over 3000 nM, the IC50 (second compound 10 µM) was over 3000 nM and the viability, T/C [1] was 104%. For the same compound, the viability, T/C [2] was 110%, the viability, T/C [3] was 95.6% and the viability, T/C [4] was 94.2%. For the same compound, the viability, T/C (second compound 0.1 µM, first compound 0.949 µM) was 96.1%, the viability, T/C (second compound 0.1 µM, first compound 3 µM) was 102% and the viability, T/C [5] was 111%. The viability, T/C [6] was 98.3%, the viability, T/C [7] was 102% and the viability, T/C [8] was 96.3%. The viability, T/C (second compound 0.316 µM, first compound 0.949 µM) was 97.2%, the viability, T/C (second compound 0.316 µM, first compound 3 µM) was 111% and the viability, T/C [9] was 104%. It also gave a viability, T/C [10] of 107%, a viability, T/C [11] of 103% and a viability, T/C [12] of 102%. The viability, T/C (second compound 1 µM, first compound 0.949 µM) was 97.2%, the viability, T/C (second compound 1 µM, first compound 3 µM) was 104% and the viability, T/C [13] was 96.6%. The viability, T/C [14] was 104%, the viability, T/C [15] was 92.8% and the viability, T/C [16] was 99.7%. The viability, T/C (second compound 3.16 µM, first compound 0.949 µM) was 108%, the viability, T/C (second compound 3.16 µM, first compound 3 µM) was 102% and the viability, T/C [17] was 101%. It also gave a viability, T/C [18] of 100%, a viability, T/C [19] of 106% and a viability, T/C [20] of 101%. It also gave a viability, T/C (second compound 10 µM, first compound 0.949 µM) of 106% and a viability, T/C (second compound 10 µM, first compound 3 µM) of 104%.

`Cn1ncnc1C1c2n[nH]c(=O)c3cc(F)cc(c23)NC1c1ccc(F)cc1` (stereo not given) + NC1CC1c1ccc(-c2cccc(O)c2)cc1 was tested, and the IC50 (second compound 0.1 µM) was over 100 nM, the IC50 (second compound 0.316 µM) was over 100 nM and the IC50 (second compound 1 µM) was over 100 nM. For the same compound, the IC50 (second compound 3.16 µM) was over 100 nM, the IC50 (second compound 10 µM) was over 100 nM and the viability, T/C (second compound 0.1 µM, first compound 0.000316 µM) was 118%. The viability, T/C (second compound 0.1 µM, first compound 0.001 µM) was 100%, the viability, T/C (second compound 0.1 µM, first compound 0.00316 µM) was 102% and the viability, T/C (second compound 0.1 µM, first compound 0.01 µM) was 82.8%. For the same compound, the viability, T/C (second compound 0.1 µM, first compound 0.0316 µM) was 92.4%, the viability, T/C (second compound 0.1 µM, first compound 0.1 µM) was 90.4% and the viability, T/C (second compound 0.316 µM, first compound 0.000316 µM) was 106%. The viability, T/C (second compound 0.316 µM, first compound 0.001 µM) was 106%, the viability, T/C (second compound 0.316 µM, first compound 0.00316 µM) was 101% and the viability, T/C (second compound 0.316 µM, first compound 0.01 µM) was 96.1%. For the same compound, the viability, T/C (second compound 0.316 µM, first compound 0.0316 µM) was 98.3%, the viability, T/C (second compound 0.316 µM, first compound 0.1 µM) was 94.1% and the viability, T/C (second compound 1 µM, first compound 0.000316 µM) was 93.1%. For the same compound, the viability, T/C (second compound 1 µM, first compound 0.001 µM) was 103%, the viability, T/C (second compound 1 µM, first compound 0.00316 µM) was 100% and the viability, T/C (second compound 1 µM, first compound 0.01 µM) was 93%. The viability, T/C (second compound 1 µM, first compound 0.0316 µM) was 84.6%, the viability, T/C (second compound 1 µM, first compound 0.1 µM) was 97% and the viability, T/C (second compound 3.16 µM, first compound 0.000316 µM) was 97.9%. It also gave a viability, T/C (second compound 3.16 µM, first compound 0.001 µM) of 104%, a viability, T/C (second compound 3.16 µM, first compound 0.00316 µM) of 97.8% and a viability, T/C (second compound 3.16 µM, first compound 0.01 µM) of 99.1%. For the same compound, the viability, T/C (second compound 3.16 µM, first compound 0.0316 µM) was 87.8%, the viability, T/C (second compound 3.16 µM, first compound 0.1 µM) was 96.9% and the viability, T/C (second compound 10 µM, first compound 0.000316 µM) was 93.8%. The viability, T/C (second compound 10 µM, first compound 0.001 µM) was 111%, the viability, T/C (second compound 10 µM, first compound 0.00316 µM) was 97.1% and the viability, T/C (second compound 10 µM, first compound 0.01 µM) was 105%. It also gave a viability, T/C (second compound 10 µM, first compound 0.0316 µM) of 100% and a viability, T/C (second compound 10 µM, first compound 0.1 µM) of 90.8%.

`Nc1ncn(C2CC(O)C(CO)S2)c(=O)n1` (stereo not given) + NC1CC1c1ccc(-c2cccc(O)c2)cc1 gave an IC50 (second compound 0.1 µM) of over 300 nM, an IC50 (second compound 0.316 µM) of over 300 nM and an IC50 (second compound 1 µM) of over 300 nM. For the same compound, the IC50 (second compound 3.16 µM) was over 300 nM, the IC50 (second compound 10 µM) was over 300 nM and the viability, T/C (second compound 0.1 µM, first compound 0.000949 µM) was 102%. It also gave a viability, T/C (second compound 0.1 µM, first compound 0.003 µM) of 94.5%, a viability, T/C [1] of 105% and a viability, T/C [2] of 85.3%. The viability, T/C [3] was 76.2%, the viability, T/C [4] was 74.8% and the viability, T/C (second compound 0.316 µM, first compound 0.000949 µM) was 95.4%. For the same compound, the viability, T/C (second compound 0.316 µM, first compound 0.003 µM) was 102%, the viability, T/C [5] was 90.6% and the viability, T/C [6] was 83.3%. The viability, T/C [7] was 74.3%, the viability, T/C [8] was 71.1% and the viability, T/C (second compound 1 µM, first compound 0.000949 µM) was 94.2%. It also gave a viability, T/C (second compound 1 µM, first compound 0.003 µM) of 89.6%, a viability, T/C [9] of 81.5% and a viability, T/C [10] of 77.4%. For the same compound, the viability, T/C [11] was 73.5%, the viability, T/C [12] was 73.2% and the viability, T/C (second compound 3.16 µM, first compound 0.000949 µM) was 96.5%. It also gave a viability, T/C (second compound 3.16 µM, first compound 0.003 µM) of 85.8%, a viability, T/C [13] of 83% and a viability, T/C [14] of 78.5%. The viability, T/C [15] was 75.1%, the viability, T/C [16] was 78% and the viability, T/C (second compound 10 µM, first compound 0.000949 µM) was 92.3%. The viability, T/C (second compound 10 µM, first compound 0.003 µM) was 85.1%, the viability, T/C [17] was 86.9% and the viability, T/C [18] was 89%. For the same compound, the viability, T/C [19] was 67.8% and the viability, T/C [20] was 64%.
